Assay results from patent US20240300979A1, “SN-38 DERIVATIVE, NANO-PARTICLES CONTAINING SAID DERIVATIVE, MEDICINE, AND METHOD FOR PRODUCING SAID NANO-PARTICLES” (JAPAN SCIENCE AND TECHNOLOGY AGENCY, priority 2021, published 2024).

Experiments:
[1] = test system: human mammary epithelial cell line HMEC; experiment: In vitro activity test, Test Example 4, normal cell; type: cell-based
Method: (§1) Human liver cancer cell line HePG2 or human breast cancer cell line KPL-4 was seeded in a 96-well plate at 2×10^4 cells/well. On the next day, irinotecan and each SN-38 derivative (compound A ((SN-38×C6 dimer (S—S, ester)), compound B (SN-38×C6 dimer (S—S, carbonate))) nanoparticle dispersion were added to the HepG2 cell culture medium to 0.04 to 10 μM. Then, the cells were cultured for 48 hours, and the cell viability was measured by a colorimetric method using the Cell Counting Kit-8 (produced by Dojindo Laboratories) and a microplate reader.
(§2) As in Test Example 1, human colon cancer cell line HCT-116 or human mammary epithelial cell line HMEC was seeded in a 96-well plate at 2×10^4 cells/well. On the next day, SN-38 and the SN-38 derivative (SNC4DC) nanoparticle dispersion were added to the cell culture medium to 0.04 to 10 μM. Then, the cells were cultured for 48 hours, and the cell viability was measured by a colorimetric method using the Cell Counting Kit-8 (produced by Dojindo Laboratories) and a microplate reader.

[2] = test system: human colon cancer cell line HCT-116; experiment: In vitro activity test, Test Example 4, cancer cell; type: cell-based; conditions: HCT-116 (Cancer cell), 48 hours, read-out: cell viability IC50
Method: as §1, §2

[3] = Dispersion stability of the nano-prodrug; type: physicochemical
From the text: (§3) Then, nanoparticles were produced. […] The present invention is based on these new findings. Therefore, the present invention provides the following items: […]

[4] = Nanoparticle aqueous dispersion, particle size and aggregation by SEM and DLS; type: physicochemical; conditions: 0.1 mM aqueous dispersion of nanoparticles
Method: 100 μL of THF solution of compound A or B prepared to 10 mM was injected into 10 mL of water using a syringe at room temperature, followed by stirring for 2 seconds at 1500 rpm, thereby obtaining an aqueous dispersion of nanoparticles. The concentration of the final aqueous dispersion was 0.1 mM.
100 μL of DMSO or THF solution of each compound prepared to 10 mM was injected into 10 mL of water using a syringe at room temperature, followed by stirring for 2 seconds at 1500 rpm, thereby obtaining an aqueous dispersion of nanoparticles. The concentration of the final aqueous dispersion was 0.1 mM.

[5] = Drug release triggered by the S-S bond on addition of dithiothreitol and glutathione; type: physicochemical; conditions: dithiothreitol and glutathione (reduced form) added to the nano-prodrug
From the text: as §3

[6] = test system: Human liver cancer cell line HePG2 or human breast cancer cell line KPL-4; experiment: In vitro activity test, Test Example 1 (cell viability, Cell Counting Kit-8); type: cell-based; conditions: nanoparticle dispersion, 0.04 to 10 μM, 48 hours
Method: as §1

IC50 [2]	SMILES	toxicity to normal cells ([1]; HMEC, in words from Table 4)	IC50 ([1]; Homo sapiens, HMEC (Normal cell), 48 hours, read-out: cell viability IC50)	dispersion stability [3]	particle size [4]	cleavage of the S-S bond [5]	formation of C6 acyloxy-substituted SN-38 derivative (drug release) [5]	pharmacological activity (cell viability, FIG. 1) [6]
40 nM	CCc1c2c(nc3ccc(O)cc13)-c1cc3c(c(=O)n1C2)COC(=O)[C@]3(O)CC [SN-38]	highly toxic to normal cells	550 nM	–	–	–	–	–
–	CCCCCC(=O)Oc1ccc2nc3c(c(CC)c2c1)Cn1c-3cc2c(c1=O)COC(=O)[C@@]2(CC)OC(=O)CCCSSCCCC(=O)O[C@]1(CC)C(=O)OCc2c1cc1n(c2=O)Cc2c-1nc1ccc(OC(=O)CCCCC)cc1c2CC [compound A]	–	–	≥ 7 days	about 100 nm	the cleavage of the S—S bond proceeded somewhat	not confirmed	did not exhibited good pharmacological activity
